Reference: patent EP1102770B1, “PARAMAGNETIC 3-,8-SUBSTITUTED DEUTEROPORPHYRIN DERIVATIVES, PHARMACEUTICAL PREPARATIONS CONTAINING SAME, METHOD FOR PRODUCING SAME AND THEIR USE IN MAGNETIC RESONANCE IMAGING OF NECROSIS AND INFARCTION” (SCHERING AKTIENGESELLSCHAFT, priority 1998, dated 2000)
Several values for one entry are separate records, joined by “and”; a condition that tells them apart may be missing. Equal values may be shown once.

Columns and labels:
[1] = test system: Tieren mit induziertem Myocardinfarkt; assay: MRI experiments in animals with induced myocardial infarction (necrosis-selective enhancement); type: in vivo, Ratten (Han.Wistar, Schering SPF); conditions: for Enhancement im nekrotischen Areal des Myocards: single i.v. dose 100 µmol Gd / kg KGW ca. 24 h after infarct induction, middle and late phase, 2.5 to ca. 24 h p. i., MRI 2 Tesla; for Abgrenzung des nekrotischen Areals im MRI-Experiment, Korrelation mit histologischer NBT ("Vital"-) Färbung: single i.v. dose 100 µmol Gd / kg KGW, heart prepared ca. 24 h p. i.
Description: Das nekroseselektive Enhancement wurde nach einmaliger intravenöser Applikation der Substanz aus Beispiel 1d an Tieren mit experimentell erzeugtem Myocardinfarkt im MRI Experiment untersucht. Die Induktion der Herzinfarkte erfolgte an narkotisierten (Domitor®/Dormicum®, i.m.) Ratten (Han.Wistar, Schering SPF, ca.300 g KGW) durch Okklusion der linken Coronararterie. Die Kontrastmittelapplikation (Dosis: 100 µmol Gd / kg KGW) erfolgte ca. 24 h nach der Infarktinduktion. Die Tiere wurden vor und bis 24 h nach KM-Applikation MR-tomographisch (SISCO SIS 85, 2 Tesla; SE-Sequenz, EKG-getriggert, TR: ca. 400 ms, TE: 10 ms, nt=4, ni=256, FOV: 7*7 cm, SD ≈ 3 mm, je 1 Schicht axial) untersucht. Ca. 24 h p. i. wurden die Tiere - im MRT - durch eine Narkotikaüberdosis getötet und zusätzlich ein MRI-Experiment am "frischtoten" Tier (--> keine Bewegungsartefakte) durchgeführt. Zur Verifizierung des Infarktes (Größe und Lage) wurde das Herz präpariert, in Scheiben geschnitten und anschließend eine NBT ("Vital-") Färbung durchgeführt. Vor KM-Applikation ist das infarzierte Areal nicht vom "normalen" Myocard zu unterscheiden, da sich beide Areale isointens darstellen (s. Abb.: 1a). Direkt nach der Substanzapplikation stellt sich der nicht-perfundierte Anteil des Myocards als hypointenses Areal dar (s. Abb.: 1b). Ab ca. 30 min p. i. steigt die Signalintensität im nicht-perfundierten Areal etwas an bzw. die Größe des abgegrenzten (Signalarmen) Areals nimmt ab (--> langsame Diffusion in die Nekrose).
Das nekroseselektive Enhancement wurde nach einmaliger intravenöser Applikation der Substanz aus Beispiel 2d an Tieren mit experimentell erzeugtem Myocardinfarkt im MRI Experiment untersucht. Die Induktion der Herzinfarkte erfolgte an narkotisierten (Domitor®/Dormicum®, i.m.) Ratten (Han.Wistar, Schering SPF, ca.300 g KGW) durch Okklusion der linken Coronararterie. Die Kontrastmittelapplikation (Dosis: 100 µmol Gd / kg KGW ) erfolgte ca. 24 h nach der Infarktinduktion. Die Tiere wurden vor und bis 3 h (kontinuierlich) sowie 24 h nach KM-Applikation MR-tomographisch (SISCO SIS 85, 2 Tesla; SE-Sequenz, EKG-getriggert, TR: ca. 400 ms, TE: 10 ms, nt=4, ni=256, FOV: 7*7 cm, SD ≈ 3 mm, je 1 Schicht axial) untersucht. Ca. 24 h p. i. wurden die Tiere - im MRT - durch eine Narkotikaüberdosis getötet und ein MRI-Experiment am "frischtoten" Tier (--> keine Bewegungsartefakte) durchgeführt. Zur Verifizierung des Infarktes (Größe und Lage) wurde das Herz präpariert, in Scheiben geschnitten und anschließend eine NBT (nitro blue tetrazolium chlorid) Färbung durchgeführt. Vor KM-Applikation ist das infarzierte Areal nicht vom "normalen" Myocard zu unterscheiden, da sich beide Areale isointens darstellen (s. Abb.: 2a). Direkt nach der Substanzapplikation stellt sich der nicht-perfundierte Anteil des Myocards als hypointenses Areal dar (s. Abb.: 2b). Ab ca. 30 min p. i. steigt die Signalintensität im nicht-perfundierten Areal etwas an bzw. die Größe des abgegrenzten (signalarmen) Areals nimmt ab (--> langsame Diffusion in die Nekrose).
Das nekroseselektive Enhancement wurde nach einmaliger intravenöser Applikation der Substanz aus Beispiel 4d an Tieren mit experimentell erzeugtem Myocardinfarkt im MRI Experiment untersucht. Die Induktion der Herzinfarkte erfolgte an narkotisierten (Domitor®/Dormicum®, i. m.) Ratten (Han. Wistar, Schering SPF, ca. 300 g KGW) durch Okklusion der linken Coronararterie. Die Kontrastmittelapplikation (Dosis: 100 µmol Gd / kg KGW) erfolgte ca. 24 h nach der Infarktinduktion. Die Tiere wurden vor und bis 3 h (kontinuierlich) sowie 24 h nach KM-Applikation MR-tomographisch (SISCO SIS 85, 2 Tesla; SE-Sequenz, EKG-getriggert, TR: ca. 400 ms, TE: 10 ms, nt=4, ni=256, FOV: 7*7 cm, SD ≈ 3 mm, je 1 Schicht axial) untersucht. Ca. 24 h p. i. wurden die Tiere - im MRT - durch eine Narkotikaüberdosis getötet und ein MRI-Experiment am "frischtoten" Tier (--> keine Bewegungsartefakte) durchgeführt. […]

[2] = test system: humanem Coloncarcinom (HT-29 P9); assay: Effect of light (ED50) on a tumour cell culture in the presence of porphyrins (phototoxicity); type: cell-based, human; conditions: concentration at which about half of the cells are no longer vital, 3 days xenon lamp (8,5 k Lux, UV filter), 2 x 30 min daily, count on day 4
Description: In Kulturflaschen von 25 ml Inhalt wird eine Zellkultur von humanem Coloncarcinom (HT-29 P9) 3 Tage bei 37°C vermehrt. Die Kulturen werden in zwei Grupen aufgeteilt und mit Lösungen der Prüfsubstanzen (50 mmol Porphyrineinheit (PE) /l, verdünnt mit fötalem Kälberserum) in zunehmender Menge (0; 1,5; 5; 8,5; 12; 15,5; 19 µmol PE/l) versetzt. Die Proben werden drei Tage lang mit einer Xenon-Lampe (8,5 k Lux, UV-Filter) bestrahlt. Die erste Gruppe erhält täglich 2 Bestrahlungen von je 30 Minuten Dauer im Abstand von 4 Stunden. Die restliche Zeit bleibt sie im Dunkeln im Brutschrank. Die zweite Gruppe wird nicht belichtet und bleibt die gesamte Zeit im Dunkeln im Brutschrank. Am vierten Tag wird das Zellwachstum durch Lebend-Tot-Färbung und Zählung mit der Zählkammer bestimmt.
In der Tabelle ist die Konzentration angegeben, bei der etwa die Hälfte der Zellen nicht mehr vital ist.

[3] = Determination of relaxivity R1; type: physicochemical; conditions: Wasser; 40°C; 0,47 Tesla; Minispec PC 20; n=3
Description: • Bestimmung der Relaxivity R1 [L·mmol^-1 ·s^-1] • Gerät: Minispec PC 20 • Messung bei 40°C; 0,47 Tesla • T1-Sequenz: 180°-TI-90°, Inversion Recovery

[4] = In vivo comparison of blood kinetics with Dy-DTPA; conditions: for Blutkonzentrationen: rats, i.v. 82 µmol Gd/kg
[5] = Acute tolerance after single intravenous administration; type: in vivo, SPF-Mäuse (NMRI, Schering); conditions: mouse, single i.v., observation 7 days
Description: Es soll die Akute Verträglichkeit der Titelverbindung aus Beispiel 2d nach einmaliger intravenöser Gabe an der Maus untersucht werden.
Testmethode: Methode KM D1, 5. Auflage Tiermaterial: SPF-Mäuse (NMRI, Schering), 18-22 g, f:m = 50:50 Injektionsgeschwindigkeit: 2 ml/min. Kriterium der Wirksamkeit: exitus letalis Beobachtungszeitraum: 7 Tage

[6] = plasma, rats n=3, i.v., 82 µmol Gd/kg (Verbindung 1), 103 µmol Dy/kg (Verbindung 2)

{mu-[{16,16'-[Chloroeisen(III)-7, 12-diethyl-3, 8, 13, 17-tetramethylporphyrin-2, 18-diyl]-bis[3, 6, 9-tris(carboxymethyl)-11,14-dioxo-3, 6, 9, 12, 13-pentaazahexadecanoato]}(8-)]}-digadolinato(2-) [Beispiel 1d]
Enhancement im nekrotischen Areal des Myocards [1]: deutliches Enhancement | Abgrenzung des nekrotischen Areals im MRI-Experiment, Korrelation mit histologischer NBT ("Vital"-) Färbung [1]: korreliert sehr gut | ED50 [2]: > 1,25 mmol PE/l | Relaxivity R1 [3]: 11.9 ± 1.0 L/mmol/s | Vd ss [4, 6]: 0.08 ± 0.00 L/kg | α-t½ [4, 6]: 3.56 ± 1.01 min | β-t½ [4, 6]: 2.88 h and 2.8817 ± 0.646 h | Blutkonzentrationen ([4]; after 120 min): 22-25 % der Dosis | Blutkonzentrationen ([4]; after three minutes): 56-63 % der Dosis

{mu-[{16,16'-[Kupfer(II)-7, 12-diethyl-3, 8, 13, 17-tetramethylporphyrin-2,18-diyl]-bis[3, 6, 9-tris(carboxymethyl)-11, 14-dioxo-3, 6, 9, 12, 13-pentaazahexadecanoato]}(8-)]}-digadolinato(2-), Dinatrium [Beispiel 4d]
Enhancement im nekrotischen Areal des Myocards [1]: deutliches Enhancement | Abgrenzung des nekrotischen Areals im MRI-Experiment, Korrelation mit histologischer NBT ("Vital"-) Färbung [1]: korreliert sehr gut | ED50 [2]: > 1,25 mmol PE/l | Relaxivity R1 [3]: 11.0 ± 0.1 L/mmol/s

{mu-[{16, 16'-(7, 12-Diethyl-3, 8, 13, 17-tetramethylporphyrin-2, 18-diyl]-bis[3,6,9-tris(carboxymethyl)-11, 14-dioxo-3, 6, 9,12, 13-pentaazahexadecanoato]}(8-)]}-digadolinato(2-),-Dinatrium [IV, reference compound]
ED50 [2]: 6,4·10^-3 mmol PE/l | Relaxivity R1 [3]: 9.2 ± 0.1 L/mmol/s

{mu-[{16, 16'-[Chloromangan(III)-7, 12-diethyl-3, 8, 13, 17-tetramethylporphyrin-2, 18-diyl]-bis[3, 6, 9-tris(carboxymethyl)-11, 14-dioxo-3, 6, 9, 12, 13-pentaazahexadecanoato]}(8-)]}-digadolinato(2-),-Dinatrium [Beispiel 2d]
Enhancement im nekrotischen Areal des Myocards [1]: deutliches Enhancement | Abgrenzung des nekrotischen Areals im MRI-Experiment, Korrelation mit histologischer NBT ("Vital"-) Färbung [1]: korreliert sehr gut | ED50 [2]: > 1,25 mmol PE/l | LD50 ([5]; 2 ml/min, value stated as to be expected): ≥ 5 mmol Gd/kg | Lebern und Nieren aller überlebenden Tiere [5]: unauffällig | Relaxivity R1 [3]: 9.3 ± 0.1 L/mmol/s
